Reference: ChEMBL document CHEMBL1130820, “Search for alpha 1-adrenoceptor subtypes selective antagonists: design, synthesis and biological activity of cystazosin, an alpha 1D-adrenoceptor antagonist” (Bioorg Med Chem Lett, 1998)

How the values were obtained:
[1] = target: T1, 5-hydroxytryptamine receptor 1A (Homo sapiens, UniProt P08908); assay: Antagonistic affinity against cloned human 5-hydroxytryptamine 1A receptor; format: functional
T1 sequence (P08908 whole entry): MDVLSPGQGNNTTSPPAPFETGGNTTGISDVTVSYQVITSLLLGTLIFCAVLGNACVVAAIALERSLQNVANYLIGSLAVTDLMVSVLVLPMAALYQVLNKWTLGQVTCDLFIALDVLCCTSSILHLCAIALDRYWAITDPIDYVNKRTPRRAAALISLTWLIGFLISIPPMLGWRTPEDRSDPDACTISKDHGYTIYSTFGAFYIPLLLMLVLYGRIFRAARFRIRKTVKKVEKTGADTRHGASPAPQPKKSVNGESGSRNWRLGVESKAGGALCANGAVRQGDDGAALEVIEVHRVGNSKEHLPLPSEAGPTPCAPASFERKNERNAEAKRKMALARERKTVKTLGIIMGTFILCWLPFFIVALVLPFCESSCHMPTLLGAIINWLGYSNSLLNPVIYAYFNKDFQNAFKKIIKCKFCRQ

[2] = target: T2, Adrenergic receptor alpha-2 (Rattus norvegicus, UniProt P22086+P19328+P22909); assay: Antagonistic affinity against native rat cortex Alpha-2 adrenergic receptor; format: functional, tissue-based
T2 sequence (P22086 whole entry): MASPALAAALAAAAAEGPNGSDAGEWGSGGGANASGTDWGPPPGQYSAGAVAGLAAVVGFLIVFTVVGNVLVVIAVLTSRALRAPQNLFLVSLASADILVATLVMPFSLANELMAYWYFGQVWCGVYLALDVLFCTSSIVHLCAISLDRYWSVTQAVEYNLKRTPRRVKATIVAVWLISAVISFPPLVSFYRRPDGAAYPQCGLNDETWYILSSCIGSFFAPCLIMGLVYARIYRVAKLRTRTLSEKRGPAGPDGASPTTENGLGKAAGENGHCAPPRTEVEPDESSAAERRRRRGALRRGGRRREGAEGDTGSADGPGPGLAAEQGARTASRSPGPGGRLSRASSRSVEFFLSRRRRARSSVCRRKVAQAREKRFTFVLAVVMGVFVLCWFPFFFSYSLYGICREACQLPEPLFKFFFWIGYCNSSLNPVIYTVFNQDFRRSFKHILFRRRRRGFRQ
T2 sequence (P19328 whole entry): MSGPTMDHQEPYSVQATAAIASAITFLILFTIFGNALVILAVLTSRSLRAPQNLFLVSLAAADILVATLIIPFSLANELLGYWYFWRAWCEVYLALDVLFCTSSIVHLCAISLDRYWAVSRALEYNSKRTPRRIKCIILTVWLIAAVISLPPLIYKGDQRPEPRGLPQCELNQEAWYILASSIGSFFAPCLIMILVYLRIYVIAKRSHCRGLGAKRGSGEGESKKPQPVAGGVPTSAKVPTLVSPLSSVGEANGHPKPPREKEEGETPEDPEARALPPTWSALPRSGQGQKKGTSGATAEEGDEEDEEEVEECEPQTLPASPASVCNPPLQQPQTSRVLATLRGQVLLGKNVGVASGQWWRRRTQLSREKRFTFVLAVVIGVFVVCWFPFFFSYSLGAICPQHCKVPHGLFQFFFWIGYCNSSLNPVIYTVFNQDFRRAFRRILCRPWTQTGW
T2 sequence (P22909 whole entry): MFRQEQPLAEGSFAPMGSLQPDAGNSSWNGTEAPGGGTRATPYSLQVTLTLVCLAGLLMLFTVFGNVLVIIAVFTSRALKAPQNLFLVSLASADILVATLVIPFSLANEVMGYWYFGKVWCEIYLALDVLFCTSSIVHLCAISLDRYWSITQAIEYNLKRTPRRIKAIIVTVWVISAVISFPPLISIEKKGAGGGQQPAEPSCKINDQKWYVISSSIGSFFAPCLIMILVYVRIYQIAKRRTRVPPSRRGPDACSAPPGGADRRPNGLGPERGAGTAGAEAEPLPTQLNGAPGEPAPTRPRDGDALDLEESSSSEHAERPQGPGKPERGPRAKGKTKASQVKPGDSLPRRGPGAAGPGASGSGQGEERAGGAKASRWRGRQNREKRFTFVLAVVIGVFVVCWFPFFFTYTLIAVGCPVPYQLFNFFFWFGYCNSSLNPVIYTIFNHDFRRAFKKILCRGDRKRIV

[3] = target: T3, Alpha-1A adrenergic receptor (Rattus norvegicus, UniProt P43140); assay: Antagonistic affinity against Alpha-1A adrenergic receptor was determined in isolated prostatic vas deferens tissue from rat; format: functional, tissue-based; settings: read-out: pA2 (converted)
T3 sequence (P43140 whole entry): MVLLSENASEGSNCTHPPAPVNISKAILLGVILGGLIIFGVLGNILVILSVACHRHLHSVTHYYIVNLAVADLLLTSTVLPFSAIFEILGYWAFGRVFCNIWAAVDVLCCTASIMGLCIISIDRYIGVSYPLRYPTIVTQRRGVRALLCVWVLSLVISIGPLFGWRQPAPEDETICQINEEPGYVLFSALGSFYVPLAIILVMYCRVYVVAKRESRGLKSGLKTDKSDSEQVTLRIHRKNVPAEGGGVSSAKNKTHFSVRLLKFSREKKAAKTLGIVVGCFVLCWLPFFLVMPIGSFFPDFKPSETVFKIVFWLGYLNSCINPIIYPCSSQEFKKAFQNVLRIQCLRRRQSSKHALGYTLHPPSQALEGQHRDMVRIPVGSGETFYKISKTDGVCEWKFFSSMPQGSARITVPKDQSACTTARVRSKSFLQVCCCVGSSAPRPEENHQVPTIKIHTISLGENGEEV

[4] = target: T4, Alpha-1D adrenergic receptor (Rattus norvegicus, UniProt P23944); assay: Antagonistic affinity against Alpha-1D adrenergic receptor was determined in isolated thoracic aorta from rat; format: functional, tissue-based; settings: read-out: pA2 (converted)
T4 sequence (P23944 whole entry): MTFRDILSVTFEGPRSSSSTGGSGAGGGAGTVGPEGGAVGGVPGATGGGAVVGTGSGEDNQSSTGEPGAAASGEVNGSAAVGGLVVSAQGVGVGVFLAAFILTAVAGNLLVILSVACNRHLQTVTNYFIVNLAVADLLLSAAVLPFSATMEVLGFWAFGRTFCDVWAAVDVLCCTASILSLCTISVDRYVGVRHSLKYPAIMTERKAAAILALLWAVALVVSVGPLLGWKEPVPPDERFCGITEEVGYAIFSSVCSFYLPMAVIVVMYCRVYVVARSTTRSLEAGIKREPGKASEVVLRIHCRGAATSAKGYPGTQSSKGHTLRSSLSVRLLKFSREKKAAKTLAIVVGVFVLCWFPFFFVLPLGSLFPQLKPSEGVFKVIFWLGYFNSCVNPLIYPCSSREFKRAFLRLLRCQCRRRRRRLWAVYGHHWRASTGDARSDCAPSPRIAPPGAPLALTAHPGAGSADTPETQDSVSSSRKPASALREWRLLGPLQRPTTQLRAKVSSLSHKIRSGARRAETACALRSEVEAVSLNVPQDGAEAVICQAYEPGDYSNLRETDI

[5] = target: T5, Alpha-1B adrenergic receptor (Rattus norvegicus, UniProt P15823); assay: Antagonistic affinity against Alpha-1B adrenergic receptor was determined in isolated spleen tissue from rat; format: functional, tissue-based; settings: read-out: pA2 (converted)
T5 sequence (P15823 whole entry): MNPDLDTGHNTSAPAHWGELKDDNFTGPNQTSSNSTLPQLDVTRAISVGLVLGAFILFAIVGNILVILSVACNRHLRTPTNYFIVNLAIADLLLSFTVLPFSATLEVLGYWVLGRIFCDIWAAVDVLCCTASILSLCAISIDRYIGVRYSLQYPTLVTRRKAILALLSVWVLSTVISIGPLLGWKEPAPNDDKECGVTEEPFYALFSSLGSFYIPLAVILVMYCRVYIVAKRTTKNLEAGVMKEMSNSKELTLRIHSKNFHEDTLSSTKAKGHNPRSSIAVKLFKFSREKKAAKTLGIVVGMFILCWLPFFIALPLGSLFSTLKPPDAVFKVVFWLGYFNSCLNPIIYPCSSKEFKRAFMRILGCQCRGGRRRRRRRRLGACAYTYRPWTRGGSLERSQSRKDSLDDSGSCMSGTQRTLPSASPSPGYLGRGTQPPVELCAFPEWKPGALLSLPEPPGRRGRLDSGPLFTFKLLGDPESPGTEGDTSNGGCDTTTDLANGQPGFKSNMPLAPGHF

D(2) dopamine receptor = D(2) dopamine receptor (Rattus norvegicus, UniProt P61169); assay: Antagonistic affinity against rat striatum Dopamine receptor D2; format: functional, tissue-based
Sequence of D(2) dopamine receptor (P61169 whole entry): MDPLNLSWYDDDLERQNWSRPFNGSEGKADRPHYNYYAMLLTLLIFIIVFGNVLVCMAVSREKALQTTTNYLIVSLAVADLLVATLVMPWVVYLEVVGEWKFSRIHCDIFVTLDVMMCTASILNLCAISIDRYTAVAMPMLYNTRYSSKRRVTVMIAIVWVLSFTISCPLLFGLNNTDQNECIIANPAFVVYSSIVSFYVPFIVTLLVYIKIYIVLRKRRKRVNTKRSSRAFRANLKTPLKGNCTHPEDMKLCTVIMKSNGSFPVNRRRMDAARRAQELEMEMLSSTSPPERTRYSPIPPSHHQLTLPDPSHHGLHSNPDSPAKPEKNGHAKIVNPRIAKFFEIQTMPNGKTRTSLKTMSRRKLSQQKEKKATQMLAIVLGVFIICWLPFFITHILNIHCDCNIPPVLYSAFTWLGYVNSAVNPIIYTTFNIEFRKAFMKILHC

Ki [1] | Log Ki [2] | Kb [3] | Kb [4] | Kb [5] | Ki (D(2) dopamine receptor) | SMILES
> 1000 nM | -7 | 0.912 nM | 0.646 nM | 0.145 nM | 2340 nM | COc1cc2nc(N(C)CCCCCCN(C)C(=O)c3ccco3)nc(N)c2cc1OC
> 1000 nM | -6.23 | 29.5 nM | 2.88 nM | 32.4 nM |  | COc1cc2nc(N(C)CCSSCCN(C)C(=O)c3ccco3)nc(N)c2cc1OC
 |  | 1780 nM | 45.7 nM | 115 nM |  | COc1cc2nc(NCCSSCCNC(=O)c3ccco3)nc(N)c2cc1OC
1.74 nM | -5.98 |  |  | 28.2 nM | 47.9 nM | COc1ccccc1N1CCN(CCN2C(=O)CC3(CCCC3)CC2=O)CC1.Cl.Cl
> 1000 nM | -6.13 | 33.1 nM |  |  | 8320 nM | COc1cc2nc(N3CCN(C(=O)c4ccco4)[C@H]4CCCC[C@H]43)nc(N)c2cc1OC [CYCLAZOSIN]
 |  |  |  |  | > 10000 nM | COc1cc2nc(N3CCN(C(=O)c4ccco4)CC3)nc(N)c2cc1OC [PRAZOSIN]
